Source: ChEMBL document CHEMBL1201862, “PubChem BioAssay data set” (2004)
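Five concentrations, 48 hours, 96-well plates. GI50 = concentration required for 50% inhibition of growth.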 The source made the active and inactive calls. No stated cut-off is given here; in the data, active = GI50 up to about 1.1 µM and inactive = higher.

Legend:
Assay in all cases: growth of human tumour cells (NCI), 48 h
HOP-92 = system: HOP-92
UACC-62 = system: UACC-62
SK-MEL-5 = system: SK-MEL-5
HL-60 = system: HL-60
NCI-H460 = system: NCI-H460
SF-295 = system: SF-295
OVCAR-3 = system: OVCAR-3
A498 = system: A498
HT-29 = system: HT-29
UACC-257 = system: UACC-257
TK-10 = system: TK-10
NCI/ADR-RES = system: NCI/ADR-RES
HOP-62 = system: HOP-62
HCC 2998 = system: HCC 2998
SNB-19 = system: SNB-19
UO-31 = system: UO-31
MDA-MB-231 = system: MDA-MB-231
PC-3 = system: PC-3
KM12 = system: KM12
SF-539 = system: SF-539

Measured: GI50

CC(C)(C)OC(=O)NCCCCC1NC(=O)[C@@H]2Cc3c([nH]c4ccccc34)C(C3CCCCC3)N2C1=O (stereo partly specified)
inactive: HOP-92 26 µM | UACC-62 32.4 µM | SK-MEL-5 33.6 µM | HL-60 31.1 µM | NCI-H460 29.2 µM | SF-295 19.8 µM | OVCAR-3 10.6 µM | A498 > 100 µM | HT-29 28.1 µM | UACC-257 35.7 µM | TK-10 21.8 µM | NCI/ADR-RES 57.9 µM | HOP-62 41.4 µM | HCC 2998 13.9 µM | SNB-19 57.7 µM | UO-31 35.1 µM | MDA-MB-231 31.6 µM | PC-3 18.3 µM | KM12 23.6 µM

C/C=C(/COC(C)=O)C(=O)OC1C=C(C=O)C(C)(C)C=C1C (stereo unspecified)
inactive: SF-539 > 100 µM | HOP-92 > 100 µM | UACC-62 > 100 µM | SK-MEL-5 > 100 µM | HL-60 45.1 µM | NCI-H460 > 100 µM | SF-295 > 100 µM | A498 > 100 µM | HT-29 > 100 µM | UACC-257 > 100 µM | TK-10 > 100 µM | NCI/ADR-RES > 100 µM | HCC 2998 > 100 µM | SNB-19 > 100 µM | UO-31 > 100 µM | MDA-MB-231 > 100 µM | PC-3 > 100 µM | KM12 > 100 µM

COc1ccc(C(=O)Sc2c(-c3ccccc3)c(=O)n(-c3ccccc3)c(=S)n2-c2ccccc2)cc1
inactive: SF-539 14.2 µM | HOP-92 24.1 µM | UACC-62 > 100 µM | HL-60 60.5 µM | NCI-H460 > 100 µM | SF-295 > 100 µM | OVCAR-3 30.5 µM | A498 15.4 µM | HT-29 > 100 µM | UACC-257 > 100 µM | TK-10 > 100 µM | NCI/ADR-RES > 100 µM | HOP-62 34.5 µM | HCC 2998 > 100 µM | SNB-19 43.5 µM | MDA-MB-231 > 100 µM | PC-3 5.16 µM | KM12 > 100 µM

N=C1OC(CN2CCN(c3ccccc3)CC2)CN1C(=O)Nc1ccccc1 (stereo unspecified)
inactive: HOP-92 > 100 µM | UACC-62 > 100 µM | SK-MEL-5 > 100 µM | HL-60 53.5 µM | NCI-H460 > 100 µM | SF-295 > 100 µM | A498 > 100 µM | HT-29 > 100 µM | UACC-257 > 100 µM | TK-10 > 100 µM | NCI/ADR-RES > 100 µM | HOP-62 > 100 µM | HCC 2998 > 100 µM | SNB-19 > 100 µM | UO-31 > 100 µM | MDA-MB-231 > 100 µM | PC-3 > 100 µM | KM12 > 100 µM

C[C@]12CC[C@@H]3c4cc(Br)c(O)c(Br)c4CC[C@H]3[C@@H]1CCC2=O
inactive: SF-539 19.9 µM | HOP-92 34.9 µM | UACC-62 16.3 µM | HL-60 26.2 µM | NCI-H460 21.4 µM | SF-295 16.4 µM | OVCAR-3 16.4 µM | A498 40.9 µM | HT-29 46.1 µM | UACC-257 20.9 µM | TK-10 17.6 µM | NCI/ADR-RES 12.5 µM | HCC 2998 13.9 µM | UO-31 11.9 µM | MDA-MB-231 32.2 µM | PC-3 30.8 µM | KM12 63.7 µM

COc1cc2oc(-c3ccc(O)cc3)c(OC3OC(C)C(O)C(O)C3O)c(=O)c2c(O)c1OC (stereo unspecified)
inactive: SF-539 > 100 µM | HOP-92 > 100 µM | UACC-62 75.5 µM | SK-MEL-5 45.1 µM | HL-60 32.9 µM | NCI-H460 45.8 µM | SF-295 > 100 µM | OVCAR-3 > 100 µM | A498 > 100 µM | HT-29 > 100 µM | UACC-257 > 100 µM | TK-10 > 100 µM | NCI/ADR-RES 75.5 µM | HOP-62 > 100 µM | HCC 2998 > 100 µM | SNB-19 > 100 µM | MDA-MB-231 > 100 µM | PC-3 > 100 µM | KM12 > 100 µM

CCC(C)C(=O)OC1CC2(C)C(c3ccoc3)OC(=O)CC23OC2(C)OC34C(OC(=O)C(C)C)C3(O)C(OC(=O)C5(C)OC5C)C5(C)CC3(O)C(C)(C5CC(=O)OC)C14O2 (stereo unspecified)
inactive: SF-539 15 µM | HOP-92 36.8 µM | UACC-62 86.9 µM | SK-MEL-5 22.8 µM | HL-60 15.6 µM | NCI-H460 36.3 µM | SF-295 41.1 µM | A498 75.5 µM | HT-29 29.7 µM | UACC-257 79.4 µM | TK-10 65 µM | NCI/ADR-RES 21.7 µM | HCC 2998 66.8 µM | SNB-19 32.6 µM | UO-31 35.9 µM | MDA-MB-231 56.2 µM | PC-3 31.8 µM | KM12 43 µM

O=c1cc(NNc2cccc(Cl)c2)[nH]c(=O)[nH]1
inactive: SF-539 > 100 µM | HOP-92 18.5 µM | UACC-62 31.6 µM | SK-MEL-5 51.1 µM | HL-60 19.5 µM | NCI-H460 > 100 µM | OVCAR-3 17.3 µM | A498 42.2 µM | HT-29 80.2 µM | UACC-257 44.3 µM | TK-10 20.8 µM | NCI/ADR-RES > 100 µM | HCC 2998 53 µM | SNB-19 46.3 µM | UO-31 18.8 µM | MDA-MB-231 17.9 µM | PC-3 75.3 µM | KM12 45.5 µM

COc1ccc(C2(CC(C)C)CCNC2)cc1OC (stereo unspecified)
inactive: HOP-92 19.8 µM | UACC-62 > 100 µM | SK-MEL-5 > 100 µM | HL-60 > 100 µM | NCI-H460 > 100 µM | SF-295 > 100 µM | A498 > 100 µM | HT-29 39.1 µM | UACC-257 > 100 µM | TK-10 > 100 µM | NCI/ADR-RES > 100 µM | HOP-62 82.2 µM | HCC 2998 12.9 µM | SNB-19 > 100 µM | UO-31 50.9 µM | MDA-MB-231 > 100 µM | PC-3 > 100 µM | KM12 > 100 µM

Cc1ccccc1N1C(N)=C(C#N)C(C#N)(C#N)C1c1ccccc1 (stereo unspecified)
inactive: SF-539 21.2 µM | HOP-92 13.8 µM | UACC-62 17.9 µM | SK-MEL-5 15.8 µM | HL-60 18.5 µM | SF-295 24.7 µM | OVCAR-3 17.2 µM | A498 16.6 µM | HT-29 18.4 µM | UACC-257 17 µM | TK-10 14.6 µM | NCI/ADR-RES 20.7 µM | HOP-62 19.4 µM | HCC 2998 16.8 µM | SNB-19 20 µM | UO-31 16.8 µM | MDA-MB-231 13.3 µM | PC-3 24.6 µM | KM12 16.8 µM

Cc1cn(CCCCCOC(=O)NC(CCCNC(=N)N)C(=O)O)c(=O)[nH]c1=O (stereo unspecified)
inactive: SF-539 45.7 µM | HOP-92 > 100 µM | UACC-62 26.7 µM | HL-60 17 µM | NCI-H460 38.2 µM | SF-295 28.2 µM | OVCAR-3 50.9 µM | A498 24.9 µM | HT-29 24.2 µM | UACC-257 > 100 µM | TK-10 > 100 µM | NCI/ADR-RES 23.1 µM | HOP-62 > 100 µM | HCC 2998 35.7 µM | SNB-19 40.8 µM | UO-31 > 100 µM | MDA-MB-231 69.8 µM | PC-3 40.8 µM | KM12 19 µM
